Test results reported in patent US20250230193A1, “CYCLIC COMPOUND HAVING SELECTIVE KRAS INHIBITORY EFFECT ON HRAS AND NRAS” (CHUGAI SEIYAKU KABUSHIKI KAISHA, priority 2022, published 2025).

Tests used:
[1] = molecular target: GDP-bound NRAS wild-type protein (Homo sapiens, UniProt P01111); experiment: Binding to NRAS by surface plasmon resonance (SPR), Single Cycle Kinetics; settings: SPR, GDP-bound NRAS wild-type vs GDP-bound KRAS wild-type
[2] = molecular target: GDP-bound HRAS wild-type protein (Homo sapiens, UniProt P01112); experiment: Binding to HRAS by surface plasmon resonance (SPR), Single Cycle Kinetics; settings: SPR, GDP-bound HRAS wild-type vs GDP-bound KRAS wild-type
Chain of GDP-bound HRAS wild-type protein (P01112 whole entry): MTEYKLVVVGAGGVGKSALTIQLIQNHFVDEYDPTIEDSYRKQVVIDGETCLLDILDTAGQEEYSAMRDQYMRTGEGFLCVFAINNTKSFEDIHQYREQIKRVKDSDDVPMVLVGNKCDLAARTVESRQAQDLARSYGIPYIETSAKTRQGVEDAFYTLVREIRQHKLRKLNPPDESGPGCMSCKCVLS

Chain of GDP-bound NRAS wild-type protein (P01111 whole entry): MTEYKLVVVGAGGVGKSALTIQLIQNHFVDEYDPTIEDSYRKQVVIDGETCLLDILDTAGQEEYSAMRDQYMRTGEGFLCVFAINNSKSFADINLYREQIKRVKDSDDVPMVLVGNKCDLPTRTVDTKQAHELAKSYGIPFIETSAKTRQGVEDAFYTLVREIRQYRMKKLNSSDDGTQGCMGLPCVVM

| SMILES | NRAS/KRAS (ratio of KD value with respect to NRAS to KD value with respect to KRAS) [1] | HRAS/KRAS (ratio of KD value with respect to HRAS to KD value with respect to KRAS) [2] |
| --- | --- | --- |
| CCO[C@@H]1C[C@H]2C(=O)NC3(CC(C)(C)C3)C(=O)N(C)[C@@H](C(CC)CC)C(=O)N(C)[C@H](C(=O)N(C)C)CC(=O)N(C)[C@@H](COC)C(=O)N[C@@H]([C@@H](C)CC)C(=O)N(C)CC(=O)N(C)[C@H]3C/C=C\CCN(C3=O)[C@@H](CC3CCC(F)(F)CC3)C(=O)N(C)CC(=O)N[C@@H](CCc3ccc(C(F)(F)F)c(Cl)c3)C(=O)N2C1 [PP2444] | A (a compound having 10 or more and less than 20 is denoted as A) | A (a compound having 10 or more and less than 20 is denoted as A) |
| CCOC[C@H]1C(=O)N[C@@H]([C@@H](C)CC)C(=O)N(C)CC(=O)N(C)[C@H]2C/C=C\CCN(C2=O)[C@@H](Cc2ccc(C)cc2)C(=O)N(C)CC(=O)N[C@@H](CCc2ccc(C(F)(F)F)c(OC)c2)C(=O)N2C[C@H](OCC)C[C@H]2C(=O)NC2(CC(C)(C)C2)C(=O)N(C)[C@@H](C2CCCC2)C(=O)N(C)[C@H](C(=O)N(C)CC)CC(=O)N1C [PP2445] | A (a compound having 10 or more and less than 20 is denoted as A) | B (a compound having 3 or more and less than 10 is denoted as B) |
| CCOC[C@H]1C(=O)N[C@@H]([C@@H](C)CC)C(=O)N(C)CC(=O)N(C)[C@H]2C/C=C\CCN(C2=O)[C@@H](CC2CCC(F)(F)CC2)C(=O)N(C)CC(=O)N[C@@H](CCc2ccc(C(F)(F)F)c(OC)c2)C(=O)N2C[C@H](OCC)C[C@H]2C(=O)NC2(CC(C)(C)C2)C(=O)N(C)[C@@H](C(CC)CC)C(=O)N(C)[C@H](C(=O)N(C)C)CC(=O)N1C [PP2446] | A (a compound having 10 or more and less than 20 is denoted as A) | A (a compound having 10 or more and less than 20 is denoted as A) |
| CCCOC[C@H]1C(=O)N[C@@H]([C@@H](C)CC)C(=O)N(C)CC(=O)N(C)[C@H]2C/C=C\CCN(C2=O)[C@@H](Cc2ccc(C)cc2)C(=O)N(C)CC(=O)N[C@@H](CCc2ccc(C(F)(F)F)c(OC)c2)C(=O)N2C[C@@H](C)C[C@H]2C(=O)NC2(CC(C)(C)C2)C(=O)N(C)[C@@H](C2CCCC2)C(=O)N(C)[C@H](C(=O)N(C)C)CC(=O)N1C [PP2447] | A (a compound having 10 or more and less than 20 is denoted as A) | B (a compound having 3 or more and less than 10 is denoted as B) |
| CCC(CC)[C@H]1C(=O)N(C)[C@H](C(=O)N(C)C)CC(=O)N(C)[C@@H](COC)C(=O)N[C@@H]([C@@H](C)CC)C(=O)N(C)CC(=O)N(C)[C@H]2C/C=C\CCN(C2=O)[C@@H](CC2CCC(F)(F)CC2)C(=O)N(C)CC(=O)N[C@@H](CCc2cc(F)c(C(F)(F)F)c(F)c2)C(=O)N2C[C@@H](C)C[C@H]2C(=O)NC2(CC(C)(C)C2)C(=O)N1C [PP2448] | A (a compound having 10 or more and less than 20 is denoted as A) | A (a compound having 10 or more and less than 20 is denoted as A) |
| CCCOC[C@H]1C(=O)N[C@@H]([C@@H](C)CC)C(=O)N(C)CC(=O)N(C)[C@H]2C/C=C\CCN(C2=O)[C@@H](Cc2ccc(C)cc2)C(=O)N(C)CC(=O)N[C@@H](CCc2ccc(C(F)(F)F)c(OC)c2)C(=O)N2C[C@H](OCC)C[C@H]2C(=O)NC2(CC(C)(C)C2)C(=O)N(C)[C@@H](C2CCCC2)C(=O)N(C)[C@H](C(=O)N(C)C)CC(=O)N1C [PP2449] | A (a compound having 10 or more and less than 20 is denoted as A) | A (a compound having 10 or more and less than 20 is denoted as A) |
| CCOC[C@H]1C(=O)N[C@@H]([C@@H](C)CC)C(=O)N(C)CC(=O)N(C)[C@H]2C/C=C\CCN(C2=O)[C@@H](CC2CCC(F)(F)CC2)C(=O)N(C)CC(=O)N[C@@H](CCc2cc(F)c(C(F)(F)F)c(F)c2)C(=O)N2C[C@H](OCC)C[C@H]2C(=O)NC2(CC(C)(C)C2)C(=O)N(C)[C@@H](C(CC)CC)C(=O)N(C)[C@H](C(=O)N(C)C)CC(=O)N1C [PP2450] | A (a compound having 10 or more and less than 20 is denoted as A) | A (a compound having 10 or more and less than 20 is denoted as A) |
| CCOC[C@H]1C(=O)N[C@@H]([C@@H](C)CC)C(=O)N(C)CC(=O)N(C)[C@H]2C/C=C\CCN(C2=O)[C@@H](Cc2ccc(C)cc2)C(=O)N(C)CC(=O)N[C@@H](CCc2ccc(C(F)(F)F)c(Cl)c2)C(=O)N2C[C@@H](C)C[C@H]2C(=O)NC2(CC(C)(C)C2)C(=O)N(C)[C@@H](C2CCCC2)C(=O)N(C)[C@H](C(=O)N(C)CC)CC(=O)N1C [PP2451] | A (a compound having 10 or more and less than 20 is denoted as A) | A (a compound having 10 or more and less than 20 is denoted as A) |
| CCO[C@@H]1C[C@H]2C(=O)NC3(CC(C)(C)C3)C(=O)N(C)[C@@H](C(CC)CC)C(=O)N(C)[C@H](C(=O)N(C)C)CC(=O)N(C)[C@@H](COC)C(=O)N[C@@H]([C@@H](C)CC)C(=O)N(C)CC(=O)N(C)[C@H]3C/C=C\CCN(C3=O)[C@@H](CC3CCCCC3)C(=O)N(C)CC(=O)N[C@@H](CCc3ccc(C(F)(F)F)c(OC)c3)C(=O)N2C1 [PP2452] | A (a compound having 10 or more and less than 20 is denoted as A) | A (a compound having 10 or more and less than 20 is denoted as A) |
| CCCOC[C@H]1C(=O)N[C@@H]([C@@H](C)CC)C(=O)N(C)CC(=O)N(C)[C@H]2C/C=C\CCN(C2=O)[C@@H](Cc2ccc(C)cc2)C(=O)N(C)CC(=O)N[C@@H](CCc2ccc(C(F)(F)F)c(Cl)c2)C(=O)N2C[C@@H](C)C[C@H]2C(=O)NC2(CC(C)(C)C2)C(=O)N(C)[C@@H](C2CCCC2)C(=O)N(C)[C@H](C(=O)N(C)C)CC(=O)N1C [PP2453] | A (a compound having 10 or more and less than 20 is denoted as A) | A (a compound having 10 or more and less than 20 is denoted as A) |
| CCC(CC)[C@H]1C(=O)N(C)[C@H](C(=O)N(C)C)CC(=O)N(C)[C@@H](COC)C(=O)N[C@@H]([C@@H](C)CC)C(=O)N(C)CC(=O)N(C)[C@H]2C/C=C\CCN(C2=O)[C@@H](CC2CCC(F)(F)CC2)C(=O)N(C)CC(=O)N[C@@H](CCc2ccc(C(F)(F)F)c(Cl)c2)C(=O)N2C[C@@H](C)C[C@H]2C(=O)NC2(CC(C)(C)C2)C(=O)N1C [PP2454] | AA (a compound having 20 or more is denoted as AA) | A (a compound having 10 or more and less than 20 is denoted as A) |
| CC[C@H](C)[C@@H]1NC(=O)[C@H](COC)N(C)C(=O)C[C@@H](C(=O)N(CC)CC)N(C)C(=O)[C@H](C2CCCC2)N(C)C(=O)C2(CC(C)(C)C2)NC(=O)[C@@H]2C[C@H](C)CN2C(=O)[C@H](CCc2cc(F)c(C(F)(F)F)c(F)c2)NC(=O)CN(C)C(=O)[C@H](Cc2ccc(C)cc2)N2CC/C=C\C[C@@H](C2=O)N(C)C(=O)CN(C)C1=O [PP2455] | AA (a compound having 20 or more is denoted as AA) | A (a compound having 10 or more and less than 20 is denoted as A) |
